Measured values from patent publication US9868748B2, “Thiazolopyrrolidine inhibitors of ROR- γ” (Vitae Pharmaceuticals, Inc., priority 2013, dated 2018).

Experiments:
[1] = target: recombinant RORγ Ligand Binding Domain (LBD) protein (Homo sapiens (Human), UniProt P51449); assay: Radio-Ligand RORγ Binding Assay (Assay 1); conditions: competition with 25-hydroxy [26,27-3H]-cholesterol, SPA; Table 9; read-out: RORγ Binding Ki Range*
Summary of the method: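 Recombinant human RORγ ligand binding domain (6×His-GST fusion, 24 nM stock) competed with tritiated 25-hydroxycholesterol (8.6 nM stock) in HEPES buffer pH 7.4 with detergents and DTT; poly-Lys YSi SPA beads, room temperature, tritium SPA signal. Four-parameter IC50 from semi-log dilutions, normalised to DMSO and 10 μM T0901317, then Ki via KD equation.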

[2] = target: full-length RORγt in Jurkat cells (Homo sapiens (Human), UniProt P51449); assay: RORγt 5xRORE Assay in Jurkat Cells (Assay 2); format: cell-based; conditions: Nanoluc luciferase reporter, 16-18 hrs, Table 9, read-out: RORγt5X IC50 Range*
Protocol: [formula] RORγt 5xRORE Assay in Jurkat Cells (Assay 2)
Compounds of the present invention were tested for RORγ inverse agonist activity in a cell-based, transcriptional activity assay. Secreted Nanoluc® luciferase was used as a reporter for transcriptional activity of the full-length RORγt in Jurkat cells (ATCC, Cat. # TIB-152). A reporter plasmid was constructed by inserting 5 repeats of the ROR Response Element (RORE) […] (SEQ ID NO:1) into a commercially available promoterless plasmid pNL1.3[secNluc] (Promega, Cat. # N1021) using KpnI and HindIII restriction sites. The expression plasmid for RORγt was purchased (Geneocopoeia, Cat. # EX-T6988-M02). Jurkat cells (30 million cells) were transfected with 11 μg of EX-T6988-MO2 and 26 μg of the reporter plasmid in OptiMEM® media using Lipofectamine® LTX and Plus™ reagents (Life Technologies, Cat. #15338-100). After 5-6 h of incubation at 37° C./5% CO2, the cells were collected, resuspended in phenol-red free RPMI media containing 10% (v/v) delipidated FBS (Hyclone, Cat. # SH30855.03) and dispensed into 96-well clear bottom tissue culture plates (CoStar, Cat. #3603), at 80,000 cells per well. Tested compounds were added to the cells in the same media (final concentration of DMSO was 0.1% (v/v)), and the plates were incubated at 37° C./5% CO2 for 16-18 hrs. Luciferase activity in the conditioned supernatants was determined with NanoGlo® assay reagents (Promega, Cat. # N1130).

full-length RORγt in Jurkat cells, sequence (P51449 other isoform, or with tags, fused parts or gaps): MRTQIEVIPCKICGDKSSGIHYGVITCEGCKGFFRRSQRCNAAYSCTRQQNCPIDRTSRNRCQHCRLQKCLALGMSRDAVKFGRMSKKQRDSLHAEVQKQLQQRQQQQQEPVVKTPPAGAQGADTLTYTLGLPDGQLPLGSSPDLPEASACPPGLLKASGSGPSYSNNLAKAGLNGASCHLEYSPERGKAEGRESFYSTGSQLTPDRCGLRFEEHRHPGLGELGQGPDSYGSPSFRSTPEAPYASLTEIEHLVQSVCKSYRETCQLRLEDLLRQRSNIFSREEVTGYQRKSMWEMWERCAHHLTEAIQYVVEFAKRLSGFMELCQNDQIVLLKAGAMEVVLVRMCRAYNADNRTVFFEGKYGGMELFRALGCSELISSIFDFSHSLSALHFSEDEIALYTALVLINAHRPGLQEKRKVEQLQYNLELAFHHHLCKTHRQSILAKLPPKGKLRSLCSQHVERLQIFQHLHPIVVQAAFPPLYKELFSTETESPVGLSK
recombinant RORγ Ligand Binding Domain (LBD) protein, sequence (P51449 269-508): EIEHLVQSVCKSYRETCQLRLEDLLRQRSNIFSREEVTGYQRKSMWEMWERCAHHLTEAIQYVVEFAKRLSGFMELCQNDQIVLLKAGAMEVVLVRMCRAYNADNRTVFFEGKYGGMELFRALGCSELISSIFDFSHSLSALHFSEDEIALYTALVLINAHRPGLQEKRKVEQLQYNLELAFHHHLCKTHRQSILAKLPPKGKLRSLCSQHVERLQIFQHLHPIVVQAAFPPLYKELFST

Row | Structure (SMILES) | Ki [1] | IC50 [2]
1 | CCS(=O)(=O)c1ccc(CC(=O)Nc2nc3c(s2)CN(Cc2ccc(=O)n(C4CC4)c2)[C@H]3C(C)C)cc1 | < 100 nM | 100 to 1000 nM
2 | CCS(=O)(=O)c1ccc(CC(=O)Nc2nc3c(s2)CN(Cc2ccc(F)cc2F)[C@H]3C(C)C)cc1 | < 100 nM | > 1000 nM
3 | CCS(=O)(=O)c1ccc(CC(=O)Nc2nc3c(s2)CN(c2cnc(C(F)(F)F)cn2)[C@H]3C(C)C)cc1 | < 100 nM | > 1000 nM
4 | CCS(=O)(=O)c1ccc(CC(=O)Nc2nc3c(s2)CN(c2ncc(Cl)c(C)n2)[C@H]3C(C)C)cc1 | < 100 nM | > 1000 nM
5 | CC(C)[C@H]1c2nc(C(=O)NCc3ccc(S(C)(=O)=O)cc3)sc2CN1Cc1ccc(C#N)cc1 | < 100 nM | 100 to 1000 nM
6 | CCS(=O)(=O)c1ccc(CC(=O)Nc2nc3c(s2)CN([C@H](C)Cc2ccccc2C(F)(F)F)[C@@H]3C(C)C)cc1 | < 100 nM | > 1000 nM
7 | CC[C@@H]1c2nc(NC(=O)Cc3ccc(S(=O)(=O)CC)cc3)sc2CN1Cc1ccc2c(c1)OCO2 | < 100 nM | > 1000 nM
8 | CCS(=O)(=O)c1ccc(CC(=O)Nc2nc3c(s2)CN(Cc2ccc(C(F)(F)F)c(F)c2)[C@@H]3C(C)C)cc1 | < 100 nM | 100 to 1000 nM
9 | CCS(=O)(=O)c1ccc(CC(=O)Nc2nc3c(s2)CN([C@@H](C)Cc2ccccc2C(F)(F)F)[C@@H]3C(C)C)cc1 | < 100 nM | > 1000 nM
10 | CCS(=O)(=O)c1ccc(CC(=O)Nc2nc3c(s2)CN([C@H](C)Cc2ccccc2)[C@@H]3C(C)C)cc1 | < 100 nM | > 1000 nM
11 | CCS(=O)(=O)c1ccc(CC(=O)Nc2nc3c(s2)CN(Cc2cccc(C4CC4)c2)[C@@H]3C(C)C)cc1 | < 100 nM | > 1000 nM
12 | CCS(=O)(=O)c1ccc(CC(=O)Nc2nc3c(s2)CN(Cc2ccnc(C(F)(F)F)c2)[C@@H]3C(C)C)cc1 | 100 to 1000 nM | > 1000 nM
13 | CCS(=O)(=O)c1ccc(CC(=O)Nc2nc3c(s2)CN(Cc2ccc(C#N)c(F)c2)[C@@H]3C(C)C)cc1 | 100 to 1000 nM | 100 to 1000 nM
14 | CCS(=O)(=O)c1ccc(CC(=O)Nc2nc3c(s2)CN(CCc2ccccc2)[C@@H]3C(C)C)cc1 | < 100 nM | > 1000 nM
15 | CCS(=O)(=O)c1ccc(CC(=O)Nc2nc3c(s2)CN(Cc2cccc(Br)c2)[C@@H]3C(C)C)cc1 | < 100 nM | > 1000 nM
16 | CC(C)[C@@H]1c2nc(NC(=O)Cc3ccc(S(C)(=O)=O)cc3)sc2CN1Cc1ccc(OC(F)F)cc1F | 100 to 1000 nM | 100 to 1000 nM
17 | CCS(=O)(=O)c1ccc(CC(=O)Nc2nc3c(s2)CN(Cc2cc(OC(F)F)ccc2F)[C@@H]3C(C)C)cc1 | < 100 nM | > 1000 nM
18 | CC[C@@H]1c2nc(NC(=O)Cc3ccc(S(=O)(=O)CC)cc3)sc2CN1Cc1ccccc1F | < 100 nM | > 1000 nM
19 | CCS(=O)(=O)c1ccc(CC(=O)Nc2nc3c(s2)CN(Cc2cccc(F)c2)[C@@H]3C(C)C)cc1 | < 100 nM | > 1000 nM
20 | CCS(=O)(=O)c1ccc(CC(=O)Nc2nc3c(s2)CN(Cc2ccccc2)[C@@H]3C(C)C)cc1 | < 100 nM | > 1000 nM
21 | CCS(=O)(=O)c1ccc(CC(=O)Nc2nc3c(s2)CN(c2nccc(C4CC4)n2)[C@@H]3C(C)C)cc1 | < 100 nM | > 1000 nM
22 | CCS(=O)(=O)c1ccc(CC(=O)Nc2nc3c(s2)CN(Cc2cc(OC(F)(F)F)ccc2F)[C@@H]3C(C)C)cc1 | < 100 nM | > 1000 nM
23 | CCS(=O)(=O)c1ccc(CC(=O)Nc2nc3c(s2)CN(C(C)c2cccc(C(F)(F)F)c2)[C@@H]3C(C)C)cc1 (stereo partly drawn) | < 100 nM | > 1000 nM
24 | CCS(=O)(=O)c1ccc(CC(=O)Nc2nc3c(s2)CN(Cc2cccc(S(C)(=O)=O)c2)[C@@H]3C(C)C)cc1 | 100 to 1000 nM | > 1000 nM
25 | CCS(=O)(=O)c1ccc(CC(=O)Nc2nc3c(s2)CN(C(C)c2ccc(F)cc2)[C@@H]3C(C)C)cc1 (stereo partly drawn) | < 100 nM | > 1000 nM
26 | CCS(=O)(=O)c1ccc(CC(=O)Nc2nc3c(s2)CN(Cc2cc(C(F)(F)F)cc(C(F)(F)F)c2)[C@@H]3C(C)C)cc1 | < 100 nM | > 1000 nM
27 | CCS(=O)(=O)c1ccc(CC(=O)Nc2nc3c(s2)CN(Cc2cc(OC)cc(OC)c2)[C@@H]3C(C)C)cc1 | < 100 nM | > 1000 nM
28 | CCS(=O)(=O)c1ccc(CC(=O)Nc2nc3c(s2)CN(Cc2ccc(C(F)(F)F)c(Cl)c2)[C@@H]3C(C)C)cc1 | < 100 nM | 100 to 1000 nM

Now from value to compound:

Row | Ki [1] | IC50 [2] | Structure (SMILES)
29 | < 100 nM | > 1000 nM | CCS(=O)(=O)c1ccc(CC(=O)Nc2nc3c(s2)CN(CCc2ccc(Cl)cc2)[C@H]3C(C)C)cc1
30 | 100 to 1000 nM | > 1000 nM | CC(C)[C@H]1c2nc(NC(=O)Cc3ccc(S(C)(=O)=O)cc3)sc2CN1Cc1ccn(C)c(=O)c1
31 | 100 to 1000 nM | > 1000 nM | CC1(C)c2nc(NC(=O)Cc3ccc(S(C)(=O)=O)cc3)sc2CN1Cc1ccc(Cl)cc1
32 | < 100 nM | 100 to 1000 nM | CC[C@H]1c2nc(NC(=O)Cc3ccc(F)cc3)sc2CN1Cc1ccc(Cl)cc1
33 | < 100 nM | > 1000 nM | CC(C)[C@H]1c2nc(NC(=O)Cc3ccc(S(C)(=O)=O)cc3)sc2CN1Cc1ccc(F)cc1
34 | < 100 nM | > 1000 nM | CCS(=O)(=O)c1ccc(CC(=O)Nc2nc3c(s2)CN(Cc2ccc(F)c(F)c2)[C@H]3C(C)C)cc1
35 | < 100 nM | < 100 nM | CCS(=O)(=O)c1ccc(CC(=O)Nc2nc3c(s2)CN(Cc2ccc(Br)cc2)[C@H]3C(C)C)cc1
36 | < 100 nM | 100 to 1000 nM | CCS(=O)(=O)c1ccc(CC(=O)Nc2nc3c(s2)CN(Cc2ccc(C#N)cc2)[C@@H]3C(C)(C)C)cc1
37 | < 100 nM | 100 to 1000 nM | CCOc1ccc(CN2Cc3sc(NC(=O)Cc4ccc(S(=O)(=O)CC)cc4)nc3[C@H]2CC)cc1
38 | < 100 nM | > 1000 nM | CC[C@@H]1c2nc(NC(=O)Cc3ccc(S(=O)(=O)CC)cc3)sc2CN1Cc1ccc(OC(C)C)cc1
39 | < 100 nM | > 1000 nM | CCc1ccc(CN2Cc3sc(NC(=O)Cc4ccc(S(C)(=O)=O)cc4)nc3[C@H]2C(C)C)cc1
40 | < 100 nM | > 1000 nM | CCS(=O)(=O)c1ccc(CC(=O)Nc2nc3c(s2)CN([C@H](C)Cc2ccc(F)cc2)[C@@H]3C(C)C)cc1
41 | < 100 nM | > 1000 nM | CC[C@@H]1c2nc(NC(=O)Cc3ccc(S(=O)(=O)CC)cc3)sc2CN1Cc1ccc(Cl)cc1
42 | < 100 nM | > 1000 nM | CCS(=O)(=O)c1ccc(CC(=O)Nc2nc3c(s2)CN(Cc2ccc(OC(F)F)cc2)[C@@H]3C(C)C)cc1
43 | 100 to 1000 nM | 100 to 1000 nM | CC[C@@H](C)[C@@H]1c2nc(NC(=O)Cc3ccc(S(C)(=O)=O)cc3)sc2CN1Cc1ccc(OC(F)(F)F)cc1
44 | 100 to 1000 nM | 100 to 1000 nM | CC(C)[C@@H]1c2nc(NC(=O)Cc3ccc(S(C)(=O)=O)cc3)sc2CN1Cc1ccc(C(F)(F)F)cc1F
45 | 100 to 1000 nM | > 1000 nM | CC(C)[C@@H]1c2nc(NC(=O)Cc3ccc(S(C)(=O)=O)cc3)sc2CN1Cc1ccc(OC(F)(F)F)cc1
46 | < 100 nM | > 1000 nM | CC(C)c1ccc(CN2Cc3sc(NC(=O)Cc4ccc(S(C)(=O)=O)cc4)nc3[C@H]2C(C)C)cc1
47 | 100 to 1000 nM | > 1000 nM | CC(C)[C@@H]1c2nc(NC(=O)Cc3ccc(S(C)(=O)=O)cc3)sc2CN1Cc1cccc(C#N)c1
48 | < 100 nM | > 1000 nM | CC(C)[C@@H]1c2nc(NC(=O)Cc3ccc(S(C)(=O)=O)cc3)sc2CN1Cc1cccc(Br)c1
49 | < 100 nM | > 1000 nM | CC(C)[C@@H]1c2nc(NC(=O)Cc3ccc(S(C)(=O)=O)cc3)sc2CN1Cc1cccc(Cl)c1
50 | < 100 nM | > 1000 nM | CC(C)[C@@H]1c2nc(NC(=O)Cc3ccc(S(C)(=O)=O)cc3)sc2CN1Cc1cccc(F)c1
51 | 100 to 1000 nM | 100 to 1000 nM | CC(C)[C@@H]1c2nc(NC(=O)Cc3ccc(S(C)(=O)=O)cc3)sc2CN1Cc1ccc(Cl)cc1
52 | < 100 nM | 100 to 1000 nM | CCS(=O)(=O)c1ccc(CC(=O)Nc2nc3c(s2)CN(Cc2ccc(C(F)(F)F)cc2)[C@@H]3C(C)C)cc1
53 | 100 to 1000 nM | 100 to 1000 nM | CC(C)[C@@H]1c2nc(NC(=O)Cc3ccc(S(C)(=O)=O)cc3)sc2CN1Cc1ccc(OC(F)F)cc1
54 | < 100 nM | > 1000 nM | CC[C@@H]1c2nc(NC(=O)Cc3ccc(S(C)(=O)=O)cc3)sc2CN1Cc1cccc(C(F)(F)F)c1
55 | 100 to 1000 nM | 100 to 1000 nM | CCS(=O)(=O)c1ccc(CC(=O)Nc2nc3c(s2)CN(Cc2ccc(C#N)cc2)[C@@H]3C(C)C)cc1
56 | < 100 nM | > 1000 nM | CCS(=O)(=O)c1ccc(CC(=O)Nc2nc3c(s2)CN(Cc2cc(Cl)ccc2Cl)[C@@H]3C(C)C)cc1
57 | < 100 nM | 100 to 1000 nM | CCS(=O)(=O)c1ccc(CC(=O)Nc2nc3c(s2)CN(Cc2ccc(OC(F)(F)F)cc2)[C@@H]3C(C)C)cc1
